Test results published in article PMC9551036, “A selective and orally bioavailable VHL-recruiting PROTAC achieves SMARCA2 degradation in vivo” (Nature Communications, 2022).
Where “and” joins values, the source holds several entries; their conditions need not be identical. Identical values can stand only once. Like-named read-outs stand apart in the source and are kept apart here.

Experiments:
SMARCA2^BD = target: T1, SMARCA2^BD (Homo sapiens, UniProt P51531); experiment: SPR binding to immobilised SMARCA2 bromodomain; details: SPR, read-out: SMARCA2 KD
T1 construct: P51531-2, residues 1373-1493 with additional N-terminal SM residues; GST (TEV site) (N, cleaved yes); made in house; host or cells: Escherichia coli BL21(DE3)
T1 sequence (P51531 1373-1493 isoform P51531-2): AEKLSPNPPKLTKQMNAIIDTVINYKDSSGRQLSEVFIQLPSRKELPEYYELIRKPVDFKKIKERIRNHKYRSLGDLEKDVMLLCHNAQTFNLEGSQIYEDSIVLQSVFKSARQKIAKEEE
Method: SMARCA4^BD was provided by the Structural Genomics Consortium (SGC), Toronto[32] and SMARCA2^BD and PRM1^BD5 were synthesised by GeneArt then subcloned into pDEST15 vectors (Invitrogen). The VCB complex was expressed and purified as described previously, with the modification that 0.3 mM IPTG was used for induction of expression. […] Both were stored in 20 mM 4-(2-hydroxyethyl)−1-piperazineethanesulfonic acid (HEPES), 150 mM sodium chloride and 1 mM tris(2-carboxyethyl)phosphine (TCEP) pH 7.5. SMARCA2^BD, SMARCA4^BD and PBRM1^BD5 were expressed in Escherichia coli BL21(DE3) as N-terminal GST fusion proteins with a TEV protease cleavage site. Expression and purification of these proteins has been described previously[32],[33]. Starter cultures were grown overnight at 37 °C in 10 mL of Luria-Bertani (LB) medium with ampicillin (100 μg/mL). The starter cultures were diluted (1:100) in Terrific Broth (TB) medium with ampicillin (100 μg/mL) and grown in a shaking incubator at 37 °C to an optical density (OD600) ~1 before the temperature was lowered for induction (to 23 °C for SMARCA2^BD or 18 °C for SMARCA4^BD and PRRM1^BD5). […] Cells were harvested by centrifugation and stored at −80 °C prior to purification. […] The Lysis buffers were as follows: for SMARCA2^BD: 50 mM HEPES, 500 mM sodium chloride, 5% glycerol, 5 mM dithiothreitol (DTT); for SMARCA4^BD: 25 mM HEPES, 0.3 M sodium chloride, 5% glycerol, 10 mM DTT, pH 7.5; for PBRM1^BD5: 25 mM HEPES, 300 mM sodium chloride, 5% glycerol, 10 mM DTT, pH 7.8; in each case supplemented with complete protease inhibitors (Roche). Affinity purification was performed using Glutathione Sepharose 4B (GE Healthcare) in batch mode or on-column. […] For SMARCA2^BD, prior to TEV protease cleavage the eluted GST-tagged BD was first dialysed into desalting buffer (20 mM HEPES, 250 mM sodium chloride, pH 7.0 + 0.5% glycerol). Where TEV cleavage was performed in solution, a second affinity (GST-trap) column purification step was carried out to remove the GST-tag and uncleaved GST-tagged protein. Proteins were further purified by SEC (HiLoad Superdex-75, 16/600) (GE Healthcare) and stored in Storage buffer (for SMARCA2^BD: 20 mM HEPES, 150 mM sodium chloride, pH 7.5; for SMARCA4^BD: 10 mM HEPES, 0.5 M NaCl, 5% glycerol, pH 7.5; for PBRM1^BD5: 20 mM HEPES, 300 mM NaCl, 5 mM DTT, pH 7.8). For AlphaScreen assays, eluted GST-tagged BDs were purified directly by SEC in the respective storage buffers without TEV cleavage. All chromatography purification steps were performed either at room temperature or 4 °C using an ÄKTA FPLC purification system (GE Healthcare) or a plastic Econo-Pac column (Bio-Rad).
(§1) SPR data were acquired on Biacore 8K or T200 instruments (Cytiva). Target proteins were immobilised at 25 °C on CM5 chips by amine coupling (EDC/NHS, Cytiva) in HBS-P+ running buffer (pH 7.4), containing 2 mM TCEP. […] The reference surface was subsequently deactivated using 1 M ethanolamine. […] Biotinylated VCB was prepared as previously described[27]: in brief, the complex was mixed 1:1 with EZ-Link NHS–PEG4–biotin (Thermo Scientific) and incubated at room temperature for 1 h. Unreacted NHS-biotin was removed using a PD-10 desalting column (Cytiva) into 20 mM HEPES, pH 7.5, 150 mM sodium chloride and 1 mM DTT. The reference surface was generated by deactivating the EDC/NHS-treated surface with 1 M ethanolamine. All interaction experiments were done at 6 °C in running buffer (20 mM TRIS, pH 8.3, 150 mM potassium chloride, 2 mM magnesium chloride, 2 mM TCEP, 0.005% TWEEN 20, 1% dimethyl sulfoxide). For ternary complex measurements, a sensor chip surface with VCB immobilised was used (preparation as described above). Experiments were run in dual-inject mode with 10 µM SMARCA present during the injection and dissociation phase. Sensorgrams from reference surfaces and blank injections were subtracted from the raw data prior to data analysis using Biacore Insight software.

[1] = system: VCB: PROTAC: SMARCA4^BD ternary complex; experiment: TR-FRET ternary complex affinity and cooperativity, SMARCA4; type: binding, human; details: ratio TR-FRET EC50 / TR-FRET EC50 +VCB measured in the same run, SMARCA4BD
[2] = target: VCB: PROTAC: SMARCA2^BD ternary complex (Homo sapiens, UniProt P40337+P51531); experiment: SPR ternary complex measurement, VCB immobilised, 10 µM SMARCA2^BD present; type: binding; set-up: P51531-2, residues 1373-1493 with additional N-terminal SM residues; His6 (TEV site) (N, cleaved yes); GST (TEV site) (N, cleaved yes); made in house; host or cells: SMARCA2^BD: Escherichia coli BL21(DE3); details: for Kd: SPR; for alpha: cooperativity, SMARCA2, ratio of KD values measured in the same run
Sequence of VCB: PROTAC: SMARCA2^BD ternary complex (P40337 54-213): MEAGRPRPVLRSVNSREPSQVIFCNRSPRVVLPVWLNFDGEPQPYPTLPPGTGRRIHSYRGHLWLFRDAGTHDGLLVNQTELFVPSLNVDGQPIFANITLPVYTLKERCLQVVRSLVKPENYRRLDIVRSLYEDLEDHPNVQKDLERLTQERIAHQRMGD
Sequence of VCB: PROTAC: SMARCA2^BD ternary complex (Q15369 17-112 partner limits assumed): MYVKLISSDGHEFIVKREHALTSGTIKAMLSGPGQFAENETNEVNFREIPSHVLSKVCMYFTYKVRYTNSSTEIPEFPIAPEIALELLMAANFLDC
Sequence of VCB: PROTAC: SMARCA2^BD ternary complex (Q15370 1-104 partner limits assumed): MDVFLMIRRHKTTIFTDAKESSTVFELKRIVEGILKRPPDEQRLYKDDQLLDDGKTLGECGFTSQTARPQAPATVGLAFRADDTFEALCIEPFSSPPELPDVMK
Sequence of VCB: PROTAC: SMARCA2^BD ternary complex (P51531 1373-1493 isoform P51531-2): as the sequence (P51531 1373-1493 isoform P51531-2) above
Method: as §1, with “software. Affinity and binding kinetic parameters were determined by global fitting using the 1:1 interaction model with a term for mass-transport included.” for “software.”

[3] = ternary complex with SMARCA2BD, mean ± SD

SMILES: Cc1ncsc1-c1ccc(C(CCC(C)CCN2CCC(c3ccc4c(c3)n(C3CCCC3)c3nc(=O)c5c(Br)cccc5n43)CC2)NC(=O)C2CC(O)CN2C(=O)C(NC(=O)C2(F)CC2)C(C)(C)C)cc1 (stereo not drawn) [ACBI2]
- Kd (SMARCA2^BD; SMARCA2BD, mean ± SD): 0.208 ± 0.039 µM
- Kd (SMARCA2^BD; individual replicates): 0.25 µM and 0.202 µM and 0.173 µM
- cooperativity α (SMARCA4BD) [1]: 3.7 ± 0.8
- Kd [2, 3]: 0.044 ± 0.011 µM
- Kd ([2]; ternary, individual replicates): 0.0358 µM and 0.056 µM and 0.0411 µM
- alpha [2]: 0.8

SMILES: Cc1ncsc1-c1ccc(CNC(=O)[C@@H]2C[C@@H](O)CN2C(=O)[C@@H](NC(=O)C2(F)CC2)C(C)(C)C)c(OCCN2CCC(c3ccc4c(c3)n(C3CCCC3)c3nc(=O)c5c(Br)cccc5n43)CC2)c1 [compound 20]
- Kd (SMARCA2^BD; SMARCA2BD, mean ± SD): 0.104 ± 0.006 µM
- Kd (SMARCA2^BD; individual replicates): 0.103 µM and 0.0988 µM and 0.11 µM
- cooperativity α (SMARCA4BD) [1]: 0.4 ± 0.0
- Kd [2, 3]: 0.097 ± 0.01 µM
- Kd ([2]; ternary, individual replicates): 0.0895 µM and 0.108 µM and 0.0918 µM
- alpha [2]: 0.1

SMILES: Cc1ncsc1-c1ccc(CNC(=O)[C@@H]2C[C@@H](O)CN2C(=O)[C@@H](NC(=O)C2(F)CC2)C(C)(C)C)c(OCCOCCOCCOCCN2CCC(c3ccc4c(c3)n(C3CCCC3)c3nc(=O)c5c(Br)cccc5n43)CC2)c1 [compound 22]
- Kd (SMARCA2^BD; SMARCA2BD, mean ± SD): 1.1 ± 0.433 µM
- Kd (SMARCA2^BD; individual replicates): 1.57 µM and 0.715 µM and 1.02 µM
- cooperativity α (SMARCA4BD) [1]: 9.1 ± 0.7
- Kd [2, 3]: 0.077 ± 0.014 µM
- Kd ([2]; ternary, individual replicates): 0.0662 µM and 0.0924 µM and 0.0713 µM
- alpha [2]: 0.5

SMILES: Cc1ncsc1-c1ccc([C@H](COC(C)(C)CN2CCC(c3ccc4c(c3)n(C3CCCC3)c3nc(=O)c5c(Br)cccc5n43)CC2)NC(=O)[C@@H]2C[C@@H](O)CN2C(=O)[C@@H](NC(=O)C2(F)CC2)C(C)(C)C)cc1 [compound 28]
- Kd (SMARCA2^BD; SMARCA2BD, mean ± SD): 0.196 ± 0.003 µM
- Kd (SMARCA2^BD; individual replicates): 0.199 µM and 0.193 µM and 0.195 µM
- cooperativity α (SMARCA4BD) [1]: 3.2 ± 0.7
- Kd [2, 3]: 0.12 ± 0.034 µM
- Kd ([2]; ternary, individual replicates): 0.0827 µM and 0.149 µM and 0.127 µM
- alpha [2]: 0.5

SMILES: Cc1ncsc1-c1ccc([C@H](COC(C)CN2CCC(c3ccc4c(c3)n(C3CCCC3)c3nc(=O)c5c(Br)cccc5n43)CC2)NC(=O)[C@@H]2C[C@@H](O)CN2C(=O)[C@@H](NC(=O)C2(F)CC2)C(C)(C)C)cc1 (stereo partly drawn) [compound 9]
- Kd (SMARCA2^BD; SMARCA2BD, mean ± SD): 0.263 ± 0.009 µM
- Kd (SMARCA2^BD; individual replicates): 0.26 µM and 0.273 µM and 0.257 µM
- cooperativity α (SMARCA4BD) [1]: 2.2 ± 0.2
- Kd [2, 3]: 0.21 ± 0.083 µM
- Kd ([2]; ternary, individual replicates): 0.132 µM and 0.298 µM and 0.201 µM
- alpha [2]: 0.2
